From US7291627B2, “Dihydroimidazo[5.1-a]-beta-carboline derivatives, method for their preparation, and their application as a drug” (MACEF, priority 2001, dated 2007)

System: JA 657 chicks
Experiment: Chick sleep/sedation test (IM injection, 90 minute observation)
Type: in vivo
Conditions: for Sed (sedation time as % of the period) / TA (time to torpor between injection and first stage of sleep) / TS (duration of the first sleep) / Tsed (total sedation time over the period): 90 min observation; for TS (mins) Placebo diff'ce: extension of first sleep compared with test controls
Protocol: The dihydroimidazo[5,1-a]-β-carboline derivatives of the invention, in particular those in the form of the methyl sulfonate, (soluble), were tested in chicks, and certain compounds that were active in the chick were administered in single doses to six Beagle dogs of both sexes for a polysomnographic study of at least 4 hours duration.
JA 657 chicks from Couvoir Gauguet, 44 Le Pin, were accustomed for at least 6 days to an alternating program of light and darkness with 12 hours of daylight and 12 hours of darkness at a regulated temperature of 25±2° C. They were fed ad libitum and were placed under test compounds in a vivarium in groups of 3 individuals with a mean weight of 100±10 g on the day of the test. At that age in this species, there is no effective meningeal (hemato-encephalic) barrier. The test products were injected in 3 doses (1, 3 and 10 mg/kg) intramuscularly (IM) in solution or in an aqueous suspension (1 drop of Tween 80 per ml), each to two batches of 3 chicks which were observed over 90 minutes. For each test series (18 vivaria), there was at least one batch of negative control chicks receiving the same volume (0.2 ml IM) of water for injectable preparations.
During the 90 minute observation period, the chicks were strongly stimulated every 15 minutes by presenting a full feeding trough, and each 5 minute period was given a grade from among the following 5 states, corresponding to the state of alertness over that period:
Mobile, sitting alert, drowsy, asleep, sleep-like state. The parameters studied were the time to torpor (TA) passed between injection and the first stage of sleep, the duration of the first sleep (TS) and the total sedation time over the period (Tsed), expressed in minutes and as a % of the period (Sed).
To compare the results of tests carried out at different dates, the extension of the duration of the first sleep TS compared with the test controls was recorded.

Compound | Sed (sedation time as % of the period) (Dose: 1 mg/kg) [%] | TA (time to torpor between injection and first stage of sleep) (Dose: 1 mg/kg) [min] | TS (duration of the first sleep) (Dose: 1 mg/kg) [min] | Tsed (total sedation time over the period) (Dose: 1 mg/kg) [min] | TS (mins) Placebo diff'ce (Dose: 1 mg/kg) [min] | Sed (sedation time as % of the period) (Dose: 3 mg/kg) [%] | TA (time to torpor between injection and first stage of sleep) (Dose: 3 mg/kg) [min] | TS (duration of the first sleep) (Dose: 3 mg/kg) [min] | Tsed (total sedation time over the period) (Dose: 3 mg/kg) [min] | TS (mins) Placebo diff'ce (Dose: 3 mg/kg) [min] | Sed (sedation time as % of the period) (Dose: 10 mg/kg) [%] | TA (time to torpor between injection and first stage of sleep) (Dose: 10 mg/kg) [min] | TS (duration of the first sleep) (Dose: 10 mg/kg) [min] | Tsed (total sedation time over the period) (Dose: 10 mg/kg) [min] | TS (mins) Placebo diff'ce (Dose: 10 mg/kg) [min]
CS(=O)(=O)O.Cc1ncc2n1CCc1c-2[nH]c2ccc(O)cc12 [Example 11, 8-hydroxy-3-methyl-5,6-dihydroimidazo[5,1-a]-β-carboline methane sulfonate] | 29.4 | 40 | 0 | 26.5 | -0.3 | 38.3 | 15 | 7 | 34.5 | 6.7 | 20.6 | 6 | 9.5 | 18.5 | 9
CS(=O)(=O)O.Cc1ncc2n1CCc1c-2[nH]c2ccccc12 [Example 12, 3-methyl-5,6-dihydroimidazo[5,1-a]-β-carboline methane sulfonate] | 51.7 | 10 | 39.5 | 46.5 | 39 | 63.9 | 3.5 | 42 | 57.5 | 41.7 | 98.9 | 1 | 89 | 89 | 88.7
COc1ccc2[nH]c3c(c2c1)CCn1c-3cnc1-c1ccccc1 [Example 14] | 63.5 | 7 | 35.5 | 62.865 | 32 | 68 | 15 | 34 | 61.2 | 31.5 | 70 | 7 | 28 | 63 | 25.5
CCn1c2c(c3ccccc31)CCn1c-2cnc1C.CS(=O)(=O)O [Example 15, 11-ethyl-3-methyl-5,6-dihydroimidazo[5,1-a]-β-carboline methane sulfonate] | 23.9 | 12.5 | 12 | 21.5 | 21 | 45 | 7 | 29.5 | 40.5 | 29 | 80 | 1 | 70 | 72 | 69.7
CS(=O)(=O)O.Cc1ncc2n1CCc1c-2n(C)c2ccc(Cl)cc12 [Example 16, 8-chloro-3,11-dimethyl-5,6-dihydroimidazo-[5,1-a]-β-carboline methane sulfonate] | 41 | 11.5 | 15 | 37 | 14.7 | 33.9 | 13.5 | 20.5 | 30.5 | 20 | 58.3 | 7.5 | 31 | 52.5 | 52
CCn1c2c(c3cc(Cl)ccc31)CCn1c-2cnc1C.CS(=O)(=O)O [Example 17, 8-chloro-3-methyl-11-ethyl-5,6-dihydro-imidazo[5,1-a]-β-carboline methane sulfonate] | 41.1 | 12 | 12 | 37 | 11.7 | 33.3 | 7.5 | 23.5 | 30 | 23 | 67.2 | 5 | 43.5 | 60.5 | 43
CS(=O)(=O)O.Cc1ccc2[nH]c3c(c2c1)CCn1c-3cnc1C [Example 18, 3,8-dimethyl-5,6-dihydroimidazo[5,1-a]-β-carboline methane sulfonate] | 69.4 | 5 | 32.5 | 62.5 | 24 | 63.9 | 4.5 | 30.5 | 57.5 | 22.5 | 90.6 | 7.5 | 76 | 81.5 | 68
CS(=O)(=O)O.Cc1ccc2c(c1)c1c(n2C)-c2cnc(C)n2CC1 [Example 19, 3,8,11-trimethyl-5,6-dihydroimidazo[5,1-a]-β-carboline methane sulfonate] | 49.4 | 4 | 17.5 | 44.5 | 11 | 62.8 | 3.5 | 46.5 | 56.5 | 38.5 | 75.0 | 3.5 | 60 | 67.5 | 52
CCn1c2c(c3cc(C)ccc31)CCn1c-2cnc1C.CS(=O)(=O)O [Example 20, 11-ethyl-3,8-dimethyl-5,6-dihydroimidazo-[5,1-a]-β-carboline methane sulfonate] | 80 | 2 | 65.5 | 72 | 57 | 79.4 | 1.5 | 51.5 | 71.5 | 43.5 | 97.2 | 1.5 | 87.5 | 87.5 | 81.5
